Consider one molecule from patent US20110105434A1, “2-AMINO PURINE DERIVATIVES AND THEIR USE AS ANTI-HERPETIC AGENTS” (priority 2007, published 2011).

This experiment relates to patient with Prinzmetal's angina. The experiment can be described thus: Prinzmetal's angina chest pain and blood pressure. Format: in vivo, human. The following applies: 300 mg/kg per day. Here is the method:
Another effect of the treatment of this invention was reduction in chest pain. A patient with an autoimmune disease was experiencing severe chest pains or Prinzmetal's angina—a coronary artery spasm and associated cardiac ischemia. After taking high doses of anti-herpes drugs, but no drugs specifically for the heart, the patient reported a marked reduction in the symptoms of Prinzmetal's angina, specifically, 95% reduction in pain at 300 mg/kg of famciclovir per day.

Regarding `CC(=O)OCC(CCn1cnc2cnc(N)nc21)COC(C)=O` [famciclovir, 2-amino-9-(4-acetoxy-3-acetoxymethylbut-1-yl)purine], the “reduction in pain of Prinzmetal's angina” value was determined as 95%. For the same molecule, under “blood pressure lowering medication reduced to a minimum”, the elevated blood pressure entry is reported as “no hypertension”.
